Source: article PMC12698583, “Efficacy of sulfonamides targeting malic enzyme in an animal model of Chagas disease” (Frontiers in Pharmacology, 2025)

Assays:
[1] = test system: T. cruzi Dm28c strain intracellular form infecting H9c2 rat cardiomyoblasts; experiment: T. cruzi intracellular image-based assay; assay type: cell-based, Trypanosoma cruzi; conditions: for SI: Selectivity index; for EC50: host cells infected by T. cruzi amastigotes, 72 h treatment
Method: Tested compounds were dissolved and serially diluted in dimethylsulfoxide (DMSO) using a half-log dilution across six concentrations. Intermediate plates were prepared by diluting compounds 1:25 in DMEM (Dulbecco’s Modified Eagle Medium) with 10% FBS (Fetal Bovine Serum). The assay was based on [Fredo Naciuk et al. (2020)], with minor modifications. Briefly, T. cruzi trypomastigotes (from LLC-MK2 cultures, 6 days post-infection) were used to infect H9c2 rat cardiomyoblasts overnight (16–18 h) at MOI 1. After washing with PBS, cells were trypsinized and resuspended in DMEM at 2.3 × 10^4 cells/mL. Then, 65 μL per well was plated in 384-well plates and incubated for 24 h (37 °C, 5% CO2, >95% humidity). Subsequently, 7.5 μL of compound solution was added (final [DMSO] 0.4%). After 72 h of treatment, cells were fixed with 4% PFA and stained with Hoechst 33342 (4 μg/mL). Six images per well were acquired using the Operetta system (PerkinElmer) and analyzed with Columbus software to quantify infected cells (≥3 cytoplasmic parasite spots).

[2] = Metabolic stability in mouse liver microsomes; assay type: in vitro ADME; conditions: for half-life at 1 μM: CD-1, pH 7.4, mouse liver microsomes, 0.25 mg/mL, read-out: T1/2 - mouse; for parent compound remaining: mouse microsomes
Method: The in vitro metabolic stability of the compound was evaluated in pooled human liver microsomes (HLM, 20 mg/mL), Sprague-Dawley rat liver microsomes (RLM, 20 mg/mL), and CD-1 mouse liver microsomes (MLM, 20 mg/mL), all purchased from GIBCO (Thermo Fisher Scientific). NADPH regenerating system (GentestTM) was prepared in potassium phosphate buffer (100 mM, pH 7.4). […] The reaction was stopped by adding acetonitrile, followed by vortex homogenization, sonication for 5 min, and centrifugation at 10,000 g for 5 min at 4 °C. The supernatants were transferred to glass vials for LC-MS/MS analysis. The half-life was estimated based on the area under the curve (AUC) through regression analysis of the concentration decay over time. This calculation was performed using the following formula: t1/2=LN2/Kel
Where LN is the neperian logarithm, and K is the slope of the regression of the LN of AUC as a function of time. Then, the microsomal intrinsic clearance (CLint, mic) was calculated using the following equation: CLint.mic=LN2/t1/2 x VI/PM
Where V is the incubation volume (µL), and PM is the microsomal protein concentration (mg). This intrinsic clearance can be extrapolated to the whole liver (CLint,hep) using the following equation: CLint.hep=CLint.mic x ML x LB
ML is the microsomal yield, and LB is the liver weight (g) per kilogram of body weight.
To ensure the linearity of the elimination phase and to avoid the influence of points outside the log-linear range, the points deviated from the expected first-order kinetic profile were excluded. The supernatants were analyzed by UPLC-Xevo-TQ-XS from Waters. Chromatographic separation was performed on an Acquity UPLC BEH C18 column (2.1 × 100 mm, 1.7 µm particle size), maintained at 40 °C. The mobile phases were (A) water with 0.1% formic acid and (B) acetonitrile with 0.1% formic acid. […] The total run time was 5 min.

[3] = Oral bioavailability (plasma concentration); assay type: in vivo, BALB/c mice; conditions: mice; for concentration at 1 h: female, BALB/c, mouse, plasma, 50 mg/kg, oral administration, after 1 h; for plasma concentration (in words): single oral dose 50 mg/kg, 5-60 min
Method: For the in vivo assays, female BALB/c mice, aged between 8 and 9 weeks and weighing approximately 25 g, were used. […] After preparation, three animals received a single oral dose of 50 mg/kg for each compound via gavage. The control group received only the vehicle. Blood samples were collected at 5-, 15-, 30-, 45-, and 60-minute post-administration using submandibular vein puncture, retro-orbital collection, and intracardiac (terminal) puncture. The mice were maintained under inhalation anesthesia with 3% isoflurane throughout the sampling period to ensure animal welfare. Blood samples were transferred to heparin-containing tubes and processed by centrifugation (4,000 rpm, 10 min, 4 °C) to separate the plasma. The obtained plasma was transferred to clean vials and stored at -80 °C until analysis. Compound quantification was performed using ultra-performance liquid chromatography coupled with tandem mass spectrometry (UPLC-MS/MS).

Stability in HBSS buffer = assay type: physicochemical; conditions: 37°C, 2 hours
Method: The compounds were evaluated for chemical stability in Hanks’ Balanced Salt Solution (HBSS) over a 2-hour incubation period at 37°C. Stock solutions prepared in DMSO were diluted in HBSS to the desired test concentration. Samples were collected at time zero and after 2 hours of incubation. The remaining concentration of each compound was quantified by HPLC-UV, with stability assessed by comparing the percentage of compound remaining after 2 hours relative to the initial concentration.

Row | half-life at 1 μM [2] [min] | parent compound remaining ([2]; 5 min) [%] | parent compound remaining ([2]; 15 min) | concentration at 1 h [3] [nM] | plasma concentration (in words) [3] | chemical stability in HBSS buffer (in words) (Stability in HBSS buffer) | microsomal CLint at 1 μM ([2]; CD-1, mouse, liver microsomes, pH 7.4, mouse liver microsomes, read-out: CL int. mic.) [µL/min/mg] | CL int. hep. ([2]; mouse, extrapolated to the whole liver) [mL/min/kg] | SMILES | SI [1] | EC50 ([1]; Trypanosoma cruzi, H9c2, 72 h) [nM] | EC50 [1] [nM]
1 | 3 | 5 | less than 1% | ≤ 1000 | between EC50 and EC90 | remained chemically stable |  |  | COc1ccc(NS(=O)(=O)c2cccc(NC(=O)c3cnccn3)c2)cc1 [AC-R008, N-(3-(N-(4-methoxyphenyl)sulfamoyl)phenyl)pyrazine-2-carboxamide] | 108 | 920 | < 1000
2 | 2 |  | less than 1% | ≤ 1000 | between EC50 and EC90 | remained chemically stable | 339 | 1370 | CC(C)Oc1ccc(NS(=O)(=O)c2cccc(NC(=O)c3cnccn3)c2)cc1 [AC-M110, N-(3-(N-(4-isopropoxyphenyl)sulfamoyl)phenyl)pyrazine-2-carboxamide] | 9092 |  | 
